The text below walks through data of patent publication US20240308987A1, “SMALL MOLECULE INHIBITOR AGAINST NASOPHARYNGEAL CARCINOMA, PREPARATION METHOD AND APPLICATION THEREOF” (SHENZHEN BAY LABORATORY, priority 2021, published 2024).

For the test, the system named is C666-1 cells. The test is described as follows: C666-1 Cell Viability Assay (Resazurin cytotoxicity test). In kind it is cell-based. The conditions noted are these: Homo sapiens, C6661, EB virus-positive C666-1 cells, 72 hours treatment, 100-0.78 micromole/L, read-out: Inhibitory Rate. The procedure:
In order to evaluate the inhibitory effect of the small molecular compound of the present disclosure on EBNA1 at the cellular level, a cytotoxicity test was performed.
As mentioned in the Background of the present disclosure, nasopharyngeal carcinoma is a kind of disease highly associated with latent infection of EB virus. EB virus in latent state only expresses limited proteins to maintain its genome replication, among which EBNA1 protein is an essential functional protein. Studies have confirmed that inhibition of EBNA1 can reduce the proliferation of the corresponding nasopharyngeal carcinoma cells or kill them. Therefore, EB virus-positive nasopharyngeal carcinoma tumor cells (C666-1 cells) are selected for test to verify the effect of the small molecular compound of the present disclosure.
During testing, 100 microliters of different cell lines were inoculated onto a transparent 96-well plate, and 5×10^3 cells were inoculated in each well for C666-1 cells. After the cells were cultured in an incubator under […] at 37° C. for 24 hours, 10 microliters of compound with a concentration ranging from 1 mmol/L to 7.8 micromol/L were added to each well (8 points, double dilution, the final concentration was 100-0.78 micromole/L), and treated in the incubator under carbon dioxide at 37° C. for 72 hours. Cell viability was assessed using the redox indicator Resazurin. After addition of 10 microliters of 600 micromole/liter Resazurin to each well and incubation at 37° C. for 3 hours. Using a Tecan microplate reader, the fluorescence signals were detected at an […]. A software was used to fit the inhibition curve and calculate half-maximal effect concentration (EC50). The selectivity of compound activity was assessed by comparing the EC50 values of EB virus-positive and EB virus-negative cell lines.
(In general: Resazurin is reduced to fluorescent resorufin, in cell work by metabolically active cells.)
For the molecule `COC(=O)c1cccc(N2CC(Oc3ccc(COc4cnccn4)cc3)C2)c1-n1cccc1` [Example 13, methyl 3-(3-(4-((pyrazin-2-yloxy)methyl)phenoxy)azetidin-1-yl)-2-(1H-pyrrol-1-yl) benzoate], the EC50 was above 50 µM.

For `O=C(O)c1cccc(N2CC(Oc3ccc(COc4cnccn4)cc3)C2)c1-n1cccc1` [Example 13a, 3-(3-(4-((pyrazin-2-yloxy)methyl)phenoxy)azetidin-1-yl)-2-(1H-pyrrol-1-yl) benzoic acid], the EC50 was above 50 µM. The figure for `COC(=O)c1cccc(N2CC(Oc3ccc(COc4cncnc4)cc3)C2)c1-n1cccc1` [Example 14, methyl 3-(3-(4-((pyrimidin-5-yloxy)methyl)phenoxy)azetidin-1-yl)-2-(1H-pyrrol-1-yl) benzoate] is 1 to 10 µM. Then `O=C(O)c1cccc(N2CC(Oc3ccc(COc4cncnc4)cc3)C2)c1-n1cccc1` [Example 14a, 3-(3-(4-((pyrimidin-5-yloxy)methyl)phenoxy)azetidin-1-yl)-2-(1H-pyrrol-1-yl) benzoic acid], with 1 to 10 µM; and `O=C(NO)c1cccc(N2CC(Oc3ccc(COc4cncnc4)cc3)C2)c1-n1cccc1` [Example 14b, N-hydroxy-3-(3-(4-((pyrimidin-5-yloxy)methyl)phenoxy)azetidin-1-yl)-2-(1H-pyrrol-1-yl) benzamide], with 1 to 10 µM; and `COC(=O)c1cccc(N2CC(Oc3ccc(COc4cccnc4)c(C)c3)C2)c1-n1cccc1` [Example 15, methyl 3-(3-(3-methyl-4-((pyridin-3-yloxy)methyl)phenoxy)azetidin-1-yl)-2-(1H-pyrrol-1-yl) benzoate], with 10 to 50 µM. The figure for `Cc1cc(OC2CN(c3cccc(C(=O)O)c3-n3cccc3)C2)ccc1COc1cccnc1` [Example 15a, 3-(3-(3-methyl-4-((pyridin-3-yloxy)methyl)phenoxy)azetidin-1-yl)-2-(1H-pyrrol-1-yl) benzoic acid] is 10 to 50 µM; for `COC(=O)c1cccc(N2CC(Oc3ccc(COc4cccnc4)cc3C)C2)c1-n1cccc1` [Example 16, methyl 3-(3-(2-methyl-4-((pyridin-3-yloxy)methyl)phenoxy)azetidin-1-yl)-2-(1H-pyrrol-1-yl) benzoate] it is 10 to 50 µM. As for `Cc1cc(COc2cccnc2)ccc1OC1CN(c2cccc(C(=O)O)c2-n2cccc2)C1` [Example 16a, 3-(3-(2-methyl-4-((pyridin-3-yloxy)methyl)phenoxy)azetidin-1-yl)-2-(1H-pyrrol-1-yl) benzoic acid], the EC50 is above 50 µM. The figure for `COC(=O)c1cccc(N2CC(Oc3ccc(COc4cccnc4)cc3)C2)c1-c1ccccc1` [Example 17, methyl 6-(3-(4-((pyridin-3-yloxy)methyl)phenoxy)azetidin-1-yl)-[1,1′-biphenyl]-2-carboxylate] is 1 to 10 µM; for `O=C(O)c1cccc(N2CC(Oc3ccc(COc4cccnc4)cc3)C2)c1-c1ccccc1` [Example 17a, 6-(3-(4-((pyridin-3-yloxy)methyl)phenoxy)azetidin-1-yl)-[1,1′-biphenyl]-2-carboxylic acid] it is 1 to 10 µM; for `O=C(NO)c1cccc(N2CC(Oc3ccc(COc4cccnc4)cc3)C2)c1-c1ccccc1` [Example 17b, N-hydroxy-6-(3-(4-((pyridin-3-yloxy)methyl)phenoxy)azetidin-1-yl)-[1,1′-biphenyl]-2-carboxamide] it is 1 to 10 µM. The figure for `COC(=O)c1cccc(N2CC(Oc3ccc(COc4cccnc4)cc3)C2)c1-c1cccc(Cl)c1` [Example 18, methyl 3′-chloro-6-(3-(4-((pyridin-3-yloxy)methyl)phenoxy)azetidin-1-yl)-[1,1′-biphenyl]-2-carboxylate] is 1 to 10 µM; for `COC(=O)c1cccc(N2CC(Oc3ccc(COc4cccnc4)c(Cl)c3)C2)c1-n1cccc1` [Example 19, methyl 3-(3-(3-chloro-4-((pyridin-3-yloxy)methyl)phenoxy)azetidin-1-yl)-2-(1H-pyrrol-1-yl) benzoate] it is 10 to 50 µM. Consider `O=C(O)c1cccc(N2CC(Oc3ccc(COc4cccnc4)c(Cl)c3)C2)c1-n1cccc1` [Example 19a, 3-(3-(3-chloro-4-((pyridin-3-yloxy)methyl)phenoxy)azetidin-1-yl)-2-(1H-pyrrol-1-yl) benzoic acid], for which the EC50 lay in the range of 10 to 50 µM. The figure for `COC(=O)c1cccc(N2CC(Oc3ccc(COc4cccnc4)c(F)c3)C2)c1-n1cccc1` [Example 20, methyl 3-(3-(3-fluoro-4-((pyridin-3-yloxy)methyl)phenoxy)azetidin-1-yl)-2-(1H-pyrrol-1-yl) benzoate] is 1 to 10 µM; for `O=C(O)c1cccc(N2CC(Oc3ccc(COc4cccnc4)c(F)c3)C2)c1-n1cccc1` [Example 20a, 3-(3-(3-fluoro-4-((pyridin-3-yloxy)methyl)phenoxy)azetidin-1-yl)-2-(1H-pyrrol-1-yl) benzoic acid] it is 10 to 50 µM.

As to `COC(=O)c1cccc(N2CC(Oc3cccc(COc4cccnc4)c3)C2)c1-n1cccc1` [Example 21, methyl 3-(3-(3-((pyridin-3-yloxy)methyl)phenoxy)azetidin-1-yl)-2-(1H-pyrrol-1-yl) benzoate], the EC50 was in the range of 10 to 50 µM.

For `COC(=O)c1cccc(C#Cc2ccc(NC(=O)Nc3cccnc3)c(O)c2)c1-c1ccccc1` [Example 22, methyl 6-((3-hydroxy-4-(3-(pyridin-3-yl)ureido)phenyl)ethynyl)-[1,1′-biphenyl]-2-carboxylate], the EC50 was below 1 µM. On to `COC(=O)c1cccc(N2CC(Oc3ccc(CNc4cccnc4)cc3)C2)c1-n1cccc1` [Example 23, methyl 3-(3-(4-((pyridin-3-ylamino)methyl)phenoxy)azetidin-1-yl)-2-(1H-pyrrol-1-yl) benzoate], for which the EC50 was in the range of 10 to 50 µM. The figure for `O=C(O)c1cccc(N2CC(Oc3ccc(CNc4cccnc4)cc3)C2)c1-n1cccc1` [Example 23a, 3-(3-(4-((pyridin-3-ylamino)methyl)phenoxy)azetidin-1-yl)-2-(1H-pyrrol-1-yl) benzoic acid] is 10 to 50 µM; for `O=C(NO)c1cccc(N2CC(Oc3ccc(CNc4cccnc4)cc3)C2)c1-n1cccc1` [Example 23b, N-hydroxy-3-(3-(4-((pyridin-3-ylamino)methyl)phenoxy)azetidin-1-yl)-2-(1H-pyrrol-1-yl) benzamide] it is below 1 µM; for `COC(=O)c1cccc(N2CC(Oc3ccc(OCc4cccnc4)cc3)C2)c1-n1cccc1` [Example 24, methyl 3-(3-(4-(pyridin-3-ylmethoxy)phenoxy)azetidin-1-yl)-2-(1H-pyrrol-1-yl) benzoate] it is 1 to 10 µM.

`O=C(O)c1cccc(N2CC(Oc3ccc(OCc4cccnc4)cc3)C2)c1-n1cccc1` [Example 24a, 3-(3-(4-(pyridin-3-ylmethoxy)phenoxy)azetidin-1-yl)-2-(1H-pyrrol-1-yl) benzoic acid]: the EC50 fell in the range of 10 to 50 µM. The figure for `O=C(NO)c1cccc(N2CC(Oc3ccc(OCc4cccnc4)cc3)C2)c1-n1cccc1` [Example 24b, N-hydroxy-3-(3-(4-(pyridin-3-ylmethoxy)phenoxy)azetidin-1-yl)-2-(1H-pyrrol-1-yl) benzamide] is below 1 µM; for `COC(=O)c1cccc(N2CC(Oc3ccc(Oc4cccnc4)cc3)C2)c1-n1cccc1` [Example 25, methyl 3-(3-(4-(pyridin-3-yloxy)phenoxy)azetidin-1-yl)-2-(1H-pyrrol-1-yl) benzoate] it is above 50 µM.
